This is an account of results in patent US20150159169A1, “Plants Tolerant to HPPD Inhibitor Herbicides” (Bayer CropScience AG, priority 2009, published 2015).

A word on the inhibition: it is the drop in the measured response relative to a control, in per cent. A word on the Km: it is the substrate concentration at which the rate is half of its maximum. Broadly, the Ki is a measure of affinity in units of concentration, obtained from inhibition or displacement.

The target in test [1] is Kordia algicida HPPD "SEQ ID No. 5" (Kordia algicida, UniProt A9DQF2). As to the kind of experiment: biochemical. The following applies: for inhibition at 5 µM: read-out: percentage of inhibition compared to the activity in absence of the inhibitor.
The target in test [2] is T1, Arabidopsis thaliana HPPD "SEQ ID No. 10" (Arabidopsis thaliana, UniProt P93836).
T1 construct: made in house; host or cells: E. coli K-12 BL21 (pQE30-AtHPPD)
T1 sequence (P93836 with tags, fused parts or gaps): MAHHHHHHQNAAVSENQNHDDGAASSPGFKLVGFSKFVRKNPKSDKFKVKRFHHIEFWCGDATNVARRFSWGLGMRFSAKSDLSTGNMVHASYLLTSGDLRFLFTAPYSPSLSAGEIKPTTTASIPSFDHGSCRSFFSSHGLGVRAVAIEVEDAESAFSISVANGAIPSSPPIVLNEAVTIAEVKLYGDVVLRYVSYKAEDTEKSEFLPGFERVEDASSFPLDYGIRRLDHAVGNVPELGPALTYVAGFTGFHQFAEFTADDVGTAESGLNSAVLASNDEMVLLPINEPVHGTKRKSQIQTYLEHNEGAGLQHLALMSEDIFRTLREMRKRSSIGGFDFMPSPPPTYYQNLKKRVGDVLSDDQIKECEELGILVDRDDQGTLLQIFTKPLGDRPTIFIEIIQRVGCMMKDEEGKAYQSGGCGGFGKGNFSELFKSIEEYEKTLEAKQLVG
As to the kind of experiment: HPPD activity in presence of HPPD inhibitors (pI50, % inhibition). The class given is biochemical.

Test [3] concerns the target Kordia algicida HPPD "SEQ ID No. 5" (FMP27e) (Kordia algicida, UniProt A9DQF2). In words: HPLC assay of HPPD in vitro kinetic properties. Type of test: biochemical. Here is the method: (§1) Km, Vmax, and kcat values for different HPPD enzyme preparations and Ki, K1=Kon, and K−1=Koff for different HPPD inhibitors were determined using a HPLC assay for measurements of HPPD activity. […] All assays were started by the addition of HPPD enzyme to the assay mixture and stopped at a series of times between 0 and 240 s by addition of 200 μl of the reaction mixture to reaction assay tubes containing 20 μl 10% perchloric acid. Precipitated protein was pelleted by a 5 minute centrifugation at 10,000 g.
(§2) For Km and Vmax value determinations the initial rates of the HPPD reaction at different substrate concentrations were determined from plots of HGA formed versus time and fitted to the Michaelis-Menten equation for unireactant enzymes using the ID Business Solutions Ltd. (idbs.com) XLfit software suite.

In test [4] the target is T1, Arabidopsis thaliana HPPD "SEQ ID No. 10". In words: HPLC assay of HPPD in vitro kinetic properties. The class given is biochemical. To be noted: substrate HPP varied 10-400 μM; enzyme SEQ ID No. 10. Here is the method:
as §1, §2

Test [5] has as its system tobacco leaf disks containing SEQ ID No. 11 (Arabidopsis HPPD). In words: Leaf disk regeneration on HPPD inhibitor media. To be noted: 6 weeks. The class given is cell-based, Nicotiana tabacum. Here is the method:
(§3) At the end of the experiments the level of regeneration was evaluated as followed:
(§4) “−” means that the leaf disks looked the same as leaf disk from wild type tobacco plants on media supplemented with the inhibitor mentioned above.
(§5) “++++” means that the leaf disks looked like the leaf disks from the wild type tobacco plants on media without inhibitor.
(§6) “+”, “++”, and “+++” indicate regenerated leaf disks were heavily (+), medium (++) and less (+++) affected by the presence of the inhibitors.

The subject of test [6] is tobacco leaf disks containing SEQ ID No. 7 (Kordia algicida HPPD). In words: Leaf disk regeneration on HPPD inhibitor media. Type of test: cell-based, Nicotiana tabacum. To be noted: 6 weeks. As to the method:
as §3, §4, §5, §6

For test [7], the system named is tobacco plants containing FMP27t-h, PAT and 2mEPSPS (pFCO116). In words: Glasshouse response of three-tolerance-gene tobacco to herbicides, injury classes. Type of test: in vivo, Nicotiana tobacum. The following applies: 9 DAT. As to the method:
A binary vector for tobacco transformation is, for example, constructed with the CaMV35 promoter driving the expression of the gene FMP27t-h (SEQ ID No. 15), with a codon usage optimized for the expression in dicotyledoneous plants and at its 5′extremity was added a sequence coding for an OTP, and further upstream a sequence TEV (Tobacco etch virus) to improve the stability of the mRNA in plants followed by the CaMV35S terminator. The nucleotide sequence of the gene FMP27t-h is given in SEQ ID No. 15. Additionally, the transformation vector also contains a PAT gene cassette in which the gene is driven by a CaVM35S promoter and followed by a CaMV35S terminator for glufosinate based selection during the transformation process and a 2mEPSPS gene cassette in which the gene is driven by an histone promoter from Arabidopsis to confer tolerance to the herbicide glyphosate to the transformed plants (see FIG. 3 H). The binary vector was called pFCO116. The above vector was used to transform leaf disc obtained from Nicotiana tobacum plants, according to Example 3.
Transgenic tobacco plants were transferred to the greenhouse and treated with glyphosate at a rate of 1121 g AI/ha. Seeds were produced from such tolerant tobacco plants and harvested. These seeds were put on soil to germinate in the glasshouse. Three to four weeks later, 50 plantlets per event were transferred to single pots. Two weeks later, plants of a size 4-6 cm were sprayed either with
[…] […] Non-transgenic tobacco plants were completely killed by treatment using one or more of the above herbicides.

The subject of a further test is wild type tobacco plants. As to the kind of experiment: Glasshouse response to bicyclopyrone, injury classes. Type of test: in vivo, Nicotiana tabacum. To be noted: 100 g AI/ha, 7 DAT; WT. An excerpt:
(§7) Seeds of wild type tobacco plants and T1 tobacco plants carrying the gene from Kordia algicida FMP27e coding for HPPD were sown on MS media (Murashige and Skoog 1964) supplemented with […] kanamycin. After 4 weeks, rooted green plantlets were transferred to soil and grown for 3 weeks in the glasshouse as described above then sprayed with a mixture containing bicyclopyrone (100 g AI/ha), ammonium sulfate and methyl ester raps oil. The plants were classified in two categories based on the phenotype developed in response to the herbicide seven days after the treatment. […] In this case, only plants containing at least one T-DNA were exposed to the herbicidal treatment.

Test [8] deals with T1 tobacco plants carrying FMP27e. The test is described as above. Type of test: in vivo, Nicotiana tabacum. The following applies: 100 g AI/ha, 7 DAT.
Text: as §7

The mark [9] stands for this setting: substrate HPP varied 10-400 μM, enzyme SEQ ID No. 5.
Where [10] appears, read: 5.0 × 10^−6M inhibitor, enzyme SEQ ID No. 5.

Where two headings read alike, the source gives them in different places.

Kordia algicida HPPD "SEQ ID No. 5" (FMP27e), sequence (A9DQF2 entry or part of it): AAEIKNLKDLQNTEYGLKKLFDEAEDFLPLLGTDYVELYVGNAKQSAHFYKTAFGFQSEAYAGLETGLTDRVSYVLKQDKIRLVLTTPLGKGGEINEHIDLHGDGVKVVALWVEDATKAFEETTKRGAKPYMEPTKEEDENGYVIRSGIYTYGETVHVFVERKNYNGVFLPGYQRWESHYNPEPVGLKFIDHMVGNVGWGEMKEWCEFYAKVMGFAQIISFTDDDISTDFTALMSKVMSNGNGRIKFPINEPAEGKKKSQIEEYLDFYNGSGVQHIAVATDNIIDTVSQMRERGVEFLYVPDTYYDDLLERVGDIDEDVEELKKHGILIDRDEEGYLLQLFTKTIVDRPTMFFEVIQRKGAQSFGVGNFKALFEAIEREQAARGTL
Kordia algicida HPPD "SEQ ID No. 5", sequence (A9DQF2 entry or part of it): as above

For `Cc1nn(C)c(O)c1C(=O)c1ccc(C(F)(F)F)cc1S(C)(=O)=O` [Pyrasulfotole], the IC50 in test [1] is 12.6 µM; in test [2], 3.98 µM. In addition, the values for the inhibition at 5 µM in [1] and in [2] (read-out: percentage of inhibition compared to the activity in absence of the inhibitor) were 43% and 69%, respectively.
As for `O=C(O)C(=O)Cc1ccc(O)cc1` [HPP, para-hydroxyphenylpyruvate], in test [3] (setting [9]), the Km is 292 µM and the Vmax was 13.6 µM. For the same compound, in test [4], the Km is 6.3 µM and the Vmax is 1.2 µM.
Regarding `CS(=O)(=O)c1ccc(C(=O)C2C(=O)CCCC2=O)c([N+](=O)[O-])c1` [Mesotrione, 2-[4-(methylsulfonyl)-2-nitrobenzoyl]-1,3-cyclohexanedione], the “level of leaf disk regeneration” value was “−” in [5] (inhibitor 10^−6 M) and “+” in test [6] (inhibitor 10^−6 M).
Consider `Cc1ccc(C(=O)COc2c(C(=O)c3ccc(Cl)c(C)c3Cl)c(C)nn2C)cc1` [Benzofenap], for which, in [1] (setting [10]), the inhibition at 5 µM is 97%. For the same compound, the IC50 in test [1] (read-out: pI50 (converted)) is under 2.51 µM.
As to `CS(=O)(=O)c1cc(C(F)(F)F)ccc1C(=O)C(C#N)C(=O)C1CC1` (centres unmarked) [Diketonitrile, 2-cyano-3-cyclopropyl-1-(2-methylsulphonyl-4-trifluoromethylphenyl)-propane-1,3-dione], the inhibition at 5 µM in test [1] (setting [10]) came to 80%. Moreover, the IC50 in test [1] (read-out: pI50 (converted)) was 2 µM. For the same compound, the inhibition constant Ki in test [3] (read-out: Ki) worked out at 15 µM. Also, the “level of leaf disk regeneration” value in test [5] (diketonitrile 5.10^−6 M) is recorded as “−”; in [6] (diketonitrile 5.10^−6 M), “+”.
Turning to `CP(=O)(O)CCC(N)C(=O)O` (centres unmarked) [Glufosinate-ammonium], in test [7] (1000 g AI/ha, line 639), the “Class I, number of plants (no injuries)” value came out at 10; the “Class II, number of plants (injury: 10-40%)” value (“Class II … (injury: 10-40%)” for short) turned out to be 0; the “Class III, number of plants (injury: 41-100%)” value (“Class III … (injury: 41-100%)” for short) is 0. In test [7] (1000 g AI/ha, line 714), the “Class I, number of plants (no injuries)” value is recorded as 10; the “Class II … (injury: 10-40%)” value is recorded as 0; the “Class III … (injury: 41-100%)” value is recorded as 0. Besides, in test [7] (1000 g AI/ha, line 717), the “Class I, number of plants (no injuries)” value is listed as 10; the “Class II … (injury: 10-40%)” value was found to be 0; the “Class III … (injury: 41-100%)” value is on record as 0.
In the case of `COCCOCc1nc(C(F)(F)F)ccc1C(=O)C1=C(O)C2CCC(C2)C1=O` (centres unmarked) [Bicyclopyrone, 4-hydroxy-3-[[2-[(2-methoxyethoxy)methyl]-6-(trifluoromethyl)-3-pyridinyl]carbonyl]bicyclo[3.2.1]oct-3-en-2-one], the IC50 in test [1] (read-out: pI50 (converted)) is 10 µM. Also, the inhibition at 5 µM in [1] amounted to 38%. Also, the “% of tolerant plant” value in the test on wild type tobacco plants amounted to 0%; in [8] (line 121) it was 39%; in [8] (line 129), 30%; in test [8] (line 218), 64%. Further, the “Class I, number of plants (injury: 0-30%)” value was 0 in the test on wild type tobacco plants, 90 in test [8] (line 121), 47 in test [8] (line 129) and 100 in [8] (line 218). For the same compound, the “Class II, number of plants (injury: 31-100%)” value with wild type tobacco plants turned out to be 12; in test [8] (line 121), 138; in test [8] (line 129) it was 111; in test [8] (line 218) it was 56. The “level of leaf disk regeneration” value in [5] (inhibitor 10^−6 M) is on record as “−”; in test [6] (inhibitor 10^−6 M) it was “++”.
For `CS(=O)(=O)c1ccc(C(=O)C2C(=O)CCCC2=O)c(Cl)c1COCC1CCCO1` (centres unmarked) [Tefuryltrione, 2-[2-chloro-4-(methylsulfonyl)-3-[[(tetrahydro-2-furanyl)methoxy]methyl]benzoyl]-1,3-cyclohexanedione], the inhibition at 5 µM in test [1] (setting [10]) amounted to 73%. Further, in test [1] (read-out: pI50 (converted)), the IC50 was 1.58 µM.
As to `O=C(O)CNCP(=O)(O)O` [Glyphosate], in test [7] (1121 g AI/ha, line 639), the “Class I, number of plants (no injuries)” value is recorded as 9; the “Class II … (injury: 10-40%)” value is listed as 0; the “Class III … (injury: 41-100%)” value was 1. Moreover, in test [7] (1121 g AI/ha, line 714), the “Class I, number of plants (no injuries)” value was 10; the “Class II … (injury: 10-40%)” value was 0; the “Class III … (injury: 41-100%)” value was determined as 0. Also, in [7] (1121 g AI/ha, line 717), the “Class I, number of plants (no injuries)” value is recorded as 10; the “Class II … (injury: 10-40%)” value is listed as 0; the “Class III … (injury: 41-100%)” value is reported as 0.
